Measurements: patent US12624395B2, “Process for identifying a stress state and/or for assessing the stress response level in a subject” (ADISSEO FRANCE S.A.S., priority 2019, dated 2026)

Columns and labels:
[1] = test system: Ross 308 male broiler chicks; experiment: Stress, non-adaptation and adaptation scores from gene signatures (RT-qPCR) in the chicken-paraquat model; format: in vivo
Text: (§1) All experimental procedures used in the current study were approved by the Ethics and Research Committee of the institution conducting the study. A total of 144 one-day-old Ross 308 male broiler chicks, with an average body weight (BW) of 39 g, were reared from D1 to D21. They were allocated in 72 battery cages (0.5×0.42 m^2) with wire floors (6 chicks/cage) in environmentally controlled rooms. The birds were randomly assigned to treatment pens with similar starting weights. Each cage was equipped with one trough feeder and one drinker. Birds had ad libitum access to mash feeds and water during all study. Average temperature was 33° C. at placement, being reduced by 1° C. every 2 days until 23° C. to provide comfort throughout the study. The lighting program was 18 hours light and 6 hours dark during each 24 hours period throughout the trial.
The experimental design was a completely randomized factorial design, consisting of a placebo or oxidative stress groups thus two experimental treatments, and 12 replicates per treatment with 6 birds for each replicate. The oxidative stress was applied only from D7 to D14, through the supplementation of a xenobiotic, i.e. paraquat dichloride hydrate (Sigma-Aldrich Company Ltd., Dorset, UK), through the water supply system at the dose of 110 μg/mL. This dosage was achieved by using water containers, individually located in each cage. The control group received standard water (placebo) on the same period using similar containers. A starter and grower diets were provided from D1 to D7, and D8 to D21, respectively. The basal diets were standard wheat/corn-soy-based broiler diets, and were formulated to meet or exceed the nutrient requirements of broilers, as recommended by the NRC (1994). Body weight (BW) was recorded on D1, D7, D14 and D21. On D14 and D21, one bird per pen replicate of each treatment was sacrificed for tissue collection. Briefly, 100 mg of tissue (breast, liver and ileum) were immerged in 2-mL Eppendorf tubes containing 1 mL RNAlater® (Sigma-Aldrich), and kept at −20° C. until analysis. RNA extraction and purification was conducted as described in Example 1.
To remove traces of contaminant genomic DNA, 2.5 μg of total RNA was treated with 2.5 U of DNasel (ThermoFischer) in a final volume of […] for 15 min at 25° C. Next, DNase was inhibited by addition of EDTA to a final concentration of 8 mM and incubated for 10 min at 70° C. Half of the DNase-treated RNA sample was reverse transcribed (RT), the other half was kept as no-RT control. RNA was denatured in a total volume of 17.6 μL containing 1.25 μg total RNA, 5 mM of nonanucleotide random primer (dN9) and 0.5 μM each dNTPs (Thermofischer). This mix was heated to 70° C. for 5 min in a thermocycler (SimpliAmp™, Life Technologies). Then, RT-AMV buffer (Life Sciences Advance Technology) was added together with 40 U RNAsine (Promega) and 0.25 U AMV Reverse Transcriptase (RT) (Life Sciences Advance Technology), and the volume was adjusted to 21.6 μL. Primers were hybridized by incubation at 25° C. for 15 min, and extension was conducted for 2 hours at 45° C. in thermocycler. No-RT controls were treated in parallel, but addition of AMV-RT enzyme was omitted.
For the quantitative PCR reaction, 1 μL of cDNA sample diluted to ⅓ was mixed to 2 μL specific primers mix 2.5 mM each and 5 μL of 2× Takyon sybrgreen—No ROX (Eurogentec) in a final volume of 10 μL. Each PCR reaction was set in triplicate. Amplification was conducted on a LC480 LightCycler® Nano (Roche) using 384 well plates and the following program: 1 initial activation cycle at 95° C. for 3 min, then 45 cycles [95° C. for 10 sec; 60° C. for 15 sec; 72° C. for 15 sec]. Specificity of each amplification was monitored by fusion curve technic detecting a single peak corresponding to one single amplicon, consisting in an initial denaturation at 95° C. for 5 sec, followed by ramping from 55 to 95° C. at 0.11° C./sec, and 5 acquisitions per sec. […]

[2] = format: in vivo, chicken; details: paraquat-treated chickens, 110 μg/mL in water supply D7 to D14
Text: as §1
The experimental design was a completely randomized factorial design, consisting of a placebo or oxidative stress groups thus two experimental treatments, and 12 replicates per treatment with 6 birds for each replicate. The oxidative stress was applied only from D7 to D14, through the supplementation of a xenobiotic, i.e. paraquat dichloride hydrate (Sigma-Aldrich Company Ltd., Dorset, UK), through the water supply system at the dose of 110 μg/mL. […] Body weight (BW) was recorded on D1, D7, D14 and D21. […]

[3] = 4 most conserved genes signature
[4] = twenty-six genes or four most conserved genes signature, FIG. 5, bottom

In the case of `C[n+]1ccc(-c2cc[n+](C)cc2)cc1` [paraquat, paraquat dichloride hydrate], the “Adaptation Score (%)” value ([1]; 4-gene signatures, mean ± SD) was 0.0 ± 0.0%, the “Non-adaptation Score (%)” value ([1]; 4-gene signatures, mean ± SD) was 78.2 ± 29.5% and the “Stress Score (%)” value ([1]; 4-gene signatures, mean ± SD) was 69.2 ± 21.6%. For the same compound, the “Adaptation Score (%)” value [1, 3] was 0%, the “Non-adaptation Score (%)” value [1, 3] was 100% and the “Stress Score (%)” value ([1]; 4 most conserved genes signature (Anxa1, Anxa2, Chac1, Postn)) was 75%. For the same compound, the “Adaptation Score (%)” value ([1]; 5-gene signatures, mean ± SD) was 0.0 ± 0.0%, the “Non-adaptation Score (%)” value ([1]; 5-gene signatures, mean ± SD) was 79.4 ± 24.8% and the “Stress Score (%)” value ([1]; 5-gene signatures, mean ± SD) was 69.2 ± 18.9%. For the same compound, the “Adaptation Score (%)” value ([1]; 6-gene signatures, mean ± SD) was 0.0 ± 0.0%, the “Non-adaptation Score (%)” value ([1]; 6-gene signatures, mean ± SD) was 79.8 ± 21.5% and the “Stress Score (%)” value ([1]; 6-gene signatures, mean ± SD) was 69.2 ± 16.8%. The “Adaptation Score (%)” value ([1]; 7-gene signatures, mean ± SD) was 0.0 ± 0.0%, the “Non-adaptation Score (%)” value ([1]; 7-gene signatures, mean ± SD) was 79.9 ± 19.0% and the “Stress Score (%)” value ([1]; 7-gene signatures, mean ± SD) was 69.2 ± 15.2%. The “Adaptation Score (%)” value ([1]; 8-gene signatures, mean ± SD) was 0.0 ± 0.0%, the “Non-adaptation Score (%)” value ([1]; 8-gene signatures, mean ± SD) was 80.0 ± 17.0% and the “Stress Score (%)” value ([1]; 8-gene signatures, mean ± SD) was 69.2 ± 13.8%. The “Adaptation Score (%)” value ([1]; 9-gene signatures, mean ± SD) was 0.0 ± 0.0%, the “Non-adaptation Score (%)” value ([1]; 9-gene signatures, mean ± SD) was 80.0 ± 15.4% and the “Stress Score (%)” value ([1]; 9-gene signatures, mean ± SD) was 69.2 ± 12.7%. For the same compound, the “Adaptation Score (%)” value ([1]; 10-gene signatures, mean ± SD) was 0.0 ± 0.0%, the “Non-adaptation Score (%)” value ([1]; 10-gene signatures, mean ± SD) was 80.0 ± 14.1% and the “Stress Score (%)” value ([1]; 10-gene signatures, mean ± SD) was 69.2 ± 11.7%. For the same compound, the “Adaptation Score (%)” value ([1]; 11-gene signatures, mean ± SD) was 0.0 ± 0.0%, the “Non-adaptation Score (%)” value ([1]; 11-gene signatures, mean ± SD) was 80.0 ± 13.0% and the “Stress Score (%)” value ([1]; 11-gene signatures, mean ± SD) was 69.2 ± 10.8%. For the same compound, the “Adaptation Score (%)” value ([1]; 12-gene signatures, mean ± SD) was 0.0 ± 0.0%, the “Non-adaptation Score (%)” value ([1]; 12-gene signatures, mean ± SD) was 80.0 ± 12.0% and the “Stress Score (%)” value ([1]; 12-gene signatures, mean ± SD) was 69.2 ± 10.0%. For the same compound, the “Adaptation Score (%)” value ([1]; 13-gene signatures, mean ± SD) was 0.0 ± 0.0%, the “Non-adaptation Score (%)” value ([1]; 13-gene signatures, mean ± SD) was 80.0 ± 11.0% and the “Stress Score (%)” value ([1]; 13-gene signatures, mean ± SD) was 69.2 ± 9.2%. The “Adaptation Score (%)” value ([1]; 14-gene signatures, mean ± SD) was 0.0 ± 0.0%, the “Non-adaptation Score (%)” value ([1]; 14-gene signatures, mean ± SD) was 80.0 ± 10.2% and the “Stress Score (%)” value ([1]; 14-gene signatures, mean ± SD) was 69.2 ± 8.5%. The “Adaptation Score (%)” value ([1]; 15-gene signatures, mean ± SD) was 0.0 ± 0.0%, the “Non-adaptation Score (%)” value ([1]; 15-gene signatures, mean ± SD) was 80.0 ± 9.4% and the “Stress Score (%)” value ([1]; 15-gene signatures, mean ± SD) was 69.2 ± 7.9%. The “Adaptation Score (%)” value ([1]; 16-gene signatures, mean ± SD) was 0.0 ± 0.0%, the “Non-adaptation Score (%)” value ([1]; 16-gene signatures, mean ± SD) was 80.0 ± 8.7% and the “Stress Score (%)” value ([1]; 16-gene signatures, mean ± SD) was 69.2 ± 7.3%. The “Adaptation Score (%)” value ([1]; 17-gene signatures, mean ± SD) was 0.0 ± 0.0%, the “Non-adaptation Score (%)” value ([1]; 17-gene signatures, mean ± SD) was 80.0 ± 7.9% and the “Stress Score (%)” value ([1]; 17-gene signatures, mean ± SD) was 69.2 ± 6.7%. For the same compound, the “Adaptation Score (%)” value ([1]; 18-gene signatures, mean ± SD) was 0.0 ± 0.0%, the “Non-adaptation Score (%)” value ([1]; 18-gene signatures, mean ± SD) was 80.0 ± 7.3% and the “Stress Score (%)” value ([1]; 18-gene signatures, mean ± SD) was 69.2 ± 6.2%. The “Adaptation Score (%)” value ([1]; 19-gene signatures, mean ± SD) was 0.0 ± 0.0%, the “Non-adaptation Score (%)” value ([1]; 19-gene signatures, mean ± SD) was 80.0 ± 6.6% and the “Stress Score (%)” value ([1]; 19-gene signatures, mean ± SD) was 69.2 ± 5.6%. For the same compound, the “Adaptation Score (%)” value ([1]; 20-gene signatures, mean ± SD) was 0.0 ± 0.0%, the “Non-adaptation Score (%)” value ([1]; 20-gene signatures, mean ± SD) was 80.0 ± 6.0% and the “Stress Score (%)” value ([1]; 20-gene signatures, mean ± SD) was 69.2 ± 5.0%. The “Adaptation Score (%)” value ([1]; 21-gene signatures, mean ± SD) was 0.0 ± 0.0%, the “Non-adaptation Score (%)” value ([1]; 21-gene signatures, mean ± SD) was 80.0 ± 5.3% and the “Stress Score (%)” value ([1]; 21-gene signatures, mean ± SD) was 69.2 ± 4.5%. For the same compound, the “Adaptation Score (%)” value ([1]; 22-gene signatures, mean ± SD) was 0.0 ± 0.0%, the “Non-adaptation Score (%)” value ([1]; 22-gene signatures, mean ± SD) was 80.0 ± 4.6% and the “Stress Score (%)” value ([1]; 22-gene signatures, mean ± SD) was 69.2 ± 3.9%. For the same compound, the “Adaptation Score (%)” value ([1]; 23-gene signatures, mean ± SD) was 0.0 ± 0.0%, the “Non-adaptation Score (%)” value ([1]; 23-gene signatures, mean ± SD) was 80.0 ± 3.9% and the “Stress Score (%)” value ([1]; 23-gene signatures, mean ± SD) was 69.2 ± 3.3%. For the same compound, the “Adaptation Score (%)” value ([1]; 24-gene signatures, mean ± SD) was 0.0 ± 0.0%, the “Non-adaptation Score (%)” value ([1]; 24-gene signatures, mean ± SD) was 80.0 ± 3.1% and the “Stress Score (%)” value ([1]; 24-gene signatures, mean ± SD) was 69.2 ± 2.7%. The “Adaptation Score (%)” value ([1]; 25-gene signatures, mean ± SD) was 0.0 ± 0.0%, the “Non-adaptation Score (%)” value ([1]; 25-gene signatures, mean ± SD) was 80.0 ± 2.2% and the “Stress Score (%)” value ([1]; 25-gene signatures, mean ± SD) was 69.2 ± 1.8%. The “Adaptation Score (%)” value ([1]; 26-gene signature, mean ± SD) was 0.0 ± 0.0%, the “Non-adaptation Score (%)” value ([1]; 26-gene signature, mean ± SD) was 80.0 ± 0.0% and the “Stress Score (%)” value ([1]; 26-gene signature, mean ± SD) was 69.2 ± 0.0%. The “non-adaptation (NA) score” value [1, 4] was “high”, the “stress (S) score” value [1, 4] was “high” and the body weight change [2] was “weight-loss”.
